In PubChem BioAssay AID328 (DTP/NCI, 2004) one finds T/C data, which are given here for 21 molecules.

Several values for one entry are separate records, joined by “and”; a condition that tells them apart may be missing. Identical values can stand only once. Toxic doses and inconclusive results are not listed.

The subject of the assay is BDF1 mice, P388 leukemia ip, median survival T/C. Briefly: NCI In Vivo Anticancer Drug Screen. Data for tumor model P388 Leukemia (intraperitoneal) in B6D2F1 (BDF1) mice. The following applies: endpoint: median survival time, higher = longer survival. In outline:
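T/C = treated-group survival ÷ vehicle-control survival; tumour transplanted into mice before dosing.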

Setting [1] is: dose: 100.0 mg/kg/injection, schedule: Q01DX009 (ip), vehicle: saline with Tween-80.
[2] abbreviates: dose: 200.0 mg/kg/injection, schedule: Q01DX009 (ip), vehicle: saline with Tween-80.
Where [3] appears, read: dose: 400.0 mg/kg/injection, schedule: Q01DX009 (ip), vehicle: saline with Tween-80.
The mark [4] stands for this setting: dose: 50.0 mg/kg/injection, schedule: Q01DX009 (ip), vehicle: saline with Tween-80.
[5] abbreviates: dose: 6.25 mg/kg/injection, schedule: Q01DX009 (ip), vehicle: saline.
Setting [6] is: dose: 12.5 mg/kg/injection, schedule: Q01DX009 (ip), vehicle: saline.
Where [7] appears, read: dose: 25.0 mg/kg/injection, schedule: Q04DX003 (ip), vehicle: saline with Tween-80.
The mark [8] stands for this setting: dose: 100.0 mg/kg/injection, schedule: Q04DX003 (ip), vehicle: saline with Tween-80.
Setting [9] is: dose: 50.0 mg/kg/injection, schedule: Q01DX009 (ip), vehicle: saline.
Setting [10] is: dose: 100.0 mg/kg/injection, schedule: Q01DX009 (ip), vehicle: saline.
Where [11] appears, read: dose: 400.0 mg/kg/injection, schedule: Q01DX009 (ip), vehicle: saline.
Where [12] appears, read: dose: 25.0 mg/kg/injection, schedule: Q01DX009 (ip), vehicle: saline.

Consider `NC(=O)c1c(F)c(F)c(F)c(F)c1F`, for which the T/C is 107 % of control (dose: 100.0 mg/kg/injection, schedule: Q01DX001 (ip), vehicle: saline with Tween-80); 115 % of control (dose: 200.0 mg/kg/injection, schedule: Q01DX001 (ip), vehicle: saline with Tween-80); 110 % of control (dose: 400.0 mg/kg/injection, schedule: Q01DX001 (ip), vehicle: saline with Tween-80).

Regarding `COc1ccc(-c2cc(C(=O)O)c3cc4ccccc4cc3n2)cc1Br`, the T/C under setting [1] is 100 % of control; the T/C under setting [2] was 100 % of control; the T/C under setting [3] is 97 % of control; the T/C (dose: 600.0 mg/kg/injection, schedule: Q01DX009 (ip), vehicle: saline with Tween-80) was 109 % of control.

Take `CC(=O)OC(C(=O)N(c1ccccc1)c1ccccc1)c1ccccc1` (centres undefined): the T/C under setting [1] was 92 % of control and the T/C under setting [3] was 96 % of control.

In the case of `CC(O)C(c1ccccc1)S(C)(=O)=O` (centres undefined), the T/C is 95 % of control (dose: 100.0 mg/kg/injection, schedule: Q04DX003 (ip), vehicle: Klucel (hydroxypropylcellulose) (HPC)); 104 % of control (dose: 200.0 mg/kg/injection, schedule: Q04DX003 (ip), vehicle: Klucel (hydroxypropylcellulose) (HPC)); 91 % of control (dose: 400.0 mg/kg/injection, schedule: Q04DX003 (ip), vehicle: Klucel (hydroxypropylcellulose) (HPC)).

In the case of `CCCCCCC(=O)CC(SCC)c1ccccc1Cl` (centres undefined), the T/C reads like this: under setting [4], 93 % of control; under setting [1], 107 % of control; under setting [2], 121 % of control.

With `Cc1ccc(NC(=O)OCCSCCOC(=O)Nc2ccc(C)cc2)cc1`, the T/C was 95 % of control (dose: 25.0 mg/kg/injection, schedule: Q04DX003 (ip), vehicle: other); 90 % of control (dose: 50.0 mg/kg/injection, schedule: Q04DX003 (ip), vehicle: other); 90 % of control (dose: 100.0 mg/kg/injection, schedule: Q04DX003 (ip), vehicle: other); 90 % of control (dose: 200.0 mg/kg/injection, schedule: Q04DX003 (ip), vehicle: other); 100 % of control (dose: 400.0 mg/kg/injection, schedule: Q04DX003 (ip), vehicle: other).

As for `CC1(C)C2CCC([CH2][Hg][Cl])C1C2` (centres undefined), the T/C is 90 % of control (dose: 1.5 mg/kg/injection, schedule: Q01DX009 (ip), vehicle: Klucel (hydroxypropylcellulose) (HPC)); 100 % of control (dose: 3.0 mg/kg/injection, schedule: Q01DX009 (ip), vehicle: Klucel (hydroxypropylcellulose) (HPC)); 90 % of control (dose: 6.0 mg/kg/injection, schedule: Q01DX009 (ip), vehicle: Klucel (hydroxypropylcellulose) (HPC)); 104 % of control (dose: 12.0 mg/kg/injection, schedule: Q01DX009 (ip), vehicle: Klucel (hydroxypropylcellulose) (HPC)); 115 % of control (dose: 25.0 mg/kg/injection, schedule: Q01DX009 (ip), vehicle: saline with Tween-80).

For `O=C(CCCCN1CCc2[nH]c3ccc(F)cc3c2C1)c1ccc(F)cc1`, the T/C is 116 % of control (dose: 100.0 mg/kg/injection, schedule: Q01DX001 (ip), vehicle: Klucel (hydroxypropylcellulose) (HPC)) and 100 % of control (dose: 200.0 mg/kg/injection, schedule: Q01DX001 (ip), vehicle: Klucel (hydroxypropylcellulose) (HPC)).

Turning to `C1CC[N-]CC1.C1CC[N-]CC1.C1CC[N-]CC1.C1CC[N-]CC1.[Pt+4]`, the T/C is 110 % of control under setting [5] and 100 % of control under setting [6].

Turning to `Cc1nc2c(NC(=O)CCl)nn(C)c2nc1C`, the T/C under setting [7] was 105 % of control; the T/C (dose: 50.0 mg/kg/injection, schedule: Q04DX003 (ip), vehicle: saline with Tween-80) was 110 % of control; the T/C under setting [8] is 95 % of control.

With `CCN1CC[N+](C)(CC)Cc2ccccc21` (centres undefined), the T/C is, setting by setting: (dose: 12.5 mg/kg/injection, schedule: Q04DX003 (ip), vehicle: saline with Tween-80) 90 % of control; under setting [7], 93 % of control.

As for `CCC1OC(=O)CC(O)C(C)C(OC2OC(C)C(O)C(N(C)C)C2O)C(CC=O)CC(C)C(=O)/C=C/C2(C)OC2C1C` (centres undefined), the T/C (dose: 150.0 mg/kg/injection, schedule: Q01DX009 (ip), vehicle: Klucel (hydroxypropylcellulose) (HPC)) is 92 % of control.

Regarding `Cc1cccc2cc3c(ccc4ccccc43)c[n+]12`, the T/C (dose: 1.0 mg/kg/injection, schedule: Q01DX009 (ip), vehicle: Klucel (hydroxypropylcellulose) (HPC)) was 109 % of control; the T/C (dose: 2.0 mg/kg/injection, schedule: Q01DX009 (ip), vehicle: Klucel (hydroxypropylcellulose) (HPC)) is 100 % of control; the T/C (dose: 4.0 mg/kg/injection, schedule: Q01DX009 (ip), vehicle: Klucel (hydroxypropylcellulose) (HPC)) is 100 % of control; the T/C (dose: 8.0 mg/kg/injection, schedule: Q01DX009 (ip), vehicle: Klucel (hydroxypropylcellulose) (HPC)) was 113 % of control.

Turning to `CCOC(=O)CCC#N`, the T/C is, setting by setting: under setting [9], 100 % of control; under setting [10], 116 % of control; under setting [11], 99 % of control.

With `O=[N+]([O-])c1ccc(NS(=O)(=O)c2cccs2)c([N+](=O)[O-])c1`, the T/C under setting [4] is 96 % of control.

Turning to `CCOC(=O)CCN1CCCCC1`, the T/C is 96 % of control under setting [10]; 95 % of control (dose: 100.0 mg/kg/injection, schedule: Q04DX003 (ip), vehicle: saline); 89 % of control (dose: 200.0 mg/kg/injection, schedule: Q01DX009 (ip), vehicle: saline); 109 % of control (dose: 200.0 mg/kg/injection, schedule: Q04DX003 (ip), vehicle: saline); 107 % of control under setting [11]; 109 % of control (dose: 400.0 mg/kg/injection, schedule: Q04DX003 (ip), vehicle: saline).

`O=P(N1CC=CCC1)(N1CC1)N1CC1`: the T/C is, setting by setting: (dose: 2.2 mg/kg/injection, schedule: Q01DX009 (ip), vehicle: saline) 115 % of control; (dose: 3.3 mg/kg/injection, schedule: Q01DX009 (ip), vehicle: saline) 105 % of control; (dose: 5.0 mg/kg/injection, schedule: Q01DX009 (ip), vehicle: saline) 161 % of control; under setting [5], 190 % of control; (dose: 7.5 mg/kg/injection, schedule: Q01DX009 (ip), vehicle: saline) 195 % of control; under setting [6], 245 % of control and 191 % of control. Besides, the T/C under setting [12] is 87 % of control and 90 % of control.

For `O=C(O)c1sc(C(=O)O)c(-c2ccccc2)c1-c1ccccc1`, the T/C reads like this: under setting [5], 89 % of control and 101 % of control; under setting [6], 101 % of control and 115 % of control; under setting [12], 87 % of control and 95 % of control; under setting [4], 100 % of control; under setting [9], 89 % of control and 100 % of control; under setting [1], 100 % of control. Also, the T/C was 90 % of control under setting [8]; 100 % of control under setting [2]; 95 % of control (dose: 200.0 mg/kg/injection, schedule: Q04DX003 (ip), vehicle: saline with Tween-80); 104 % of control (dose: 400.0 mg/kg/injection, schedule: Q04DX003 (ip), vehicle: saline with Tween-80).

Regarding `COc1cccc2c1C(=O)c1c(O)c3c(c(O)c1C2=O)C[C@@](O)(/C(C)=N/NC(=O)c1ccc(N(C)C)cc1)C[C@@H]3OC1CC(N)C(O)C(C)O1` (some centres undefined), the T/C runs as follows: (dose: 0.25 mg/kg/injection, schedule: Q01DX009 (ip), vehicle: water) 96 % of control; (dose: 1.0 mg/kg/injection, schedule: Q01DX009 (ip), vehicle: water) 107 % of control and 110 % of control; (dose: 2.0 mg/kg/injection, schedule: Q01DX009 (ip), vehicle: water) 233 % of control and 154 % of control; (dose: 4.0 mg/kg/injection, schedule: Q01DX009 (ip), vehicle: water) 179 % of control; (dose: 8.0 mg/kg/injection, schedule: Q01DX009 (ip), vehicle: water) 243 % of control.

In the case of `CC1(C)S[C@@H]2[C@H](NC(=O)CCC[C@@H](N)C(=O)O)C(=O)N2[C@H]1C(=O)O`, the T/C (dose: 23.0 mg/kg/injection, schedule: Q01DX009 (ip), vehicle: saline) was 99 % of control; the T/C (dose: 47.0 mg/kg/injection, schedule: Q01DX009 (ip), vehicle: saline) is 106 % of control; the T/C (dose: 94.0 mg/kg/injection, schedule: Q01DX009 (ip), vehicle: saline) was 107 % of control and 117 % of control and 120 % of control; the T/C (dose: 188.0 mg/kg/injection, schedule: Q01DX009 (ip), vehicle: saline) is 102 % of control and 104 % of control and 106 % of control; the T/C (dose: 750.0 mg/kg/injection, schedule: Q01DX009 (ip), vehicle: saline) was 95 % of control and 102 % of control.

For `OC(Cc1nc2ccccc2nc1CC(O)(c1ccccc1)c1ccccc1)(c1ccccc1)c1ccccc1`, the T/C was 90 % of control under setting [4], 98 % of control under setting [1] and 106 % of control under setting [2].
